Here are results for one compound from US20020192178A1, “Leguminous extract heavy-metal-scavenging anti-pollution agent” (L'OREAL, priority 2001, published 2002).

The structures appear in SMILES notation.

The experiment has as its system immortalized human keratinocytes (DK7-NR). The experiment in a line: Protective effect against cadmium cytotoxicity, Neutral Red incorporation test. The settings on record: cadmium chloride alone, 0% extract of maize, 24 hours; read-out: IC50 (concentration of CdCl2 inducing a 50% decrease in viability). The experiment is classed as cell-based. The procedure: Heavy metals such as cadmium, nickel, lead, mercury, etc. can cause cytotoxicity on the cells of various organs including the skin. The cytotoxic effect of cadmium on human keratinocytes in culture was evaluated by a technique for measuring the cell viability: the Neutral Red incorporation test (Culture Methods. 1984, 9, 7-9).
The study was performed on a monolayer culture of immortalized human keratinocytes (DK7-NR) by the Nestle research center. The cells are inoculated on D-3 in 96-well culture dishes at a rate of 25 000 cells/cm^2 in 100 µl of culture medium (medium defined without calf serum, NR2, Biofluids). The incubations are performed in an incubator at 37° C. in humid atmosphere enriched with 5% CO2.
The cells are treated [lacuna] 24 hours with increasing concentrations (0, 10, 25, 50, 75, 100, 150 and 200 μM) of cadmium chloride (CdC12) alone, so as to determine its cytotoxicity. In parallel, a treatment is performed under the same conditions, but in the presence of the extract of maize (Phytovityl® at 0.5% and 1%, non-cytotoxic concentrations for the cells). The incubations are performed in an incubator at 37° C., 5% CO2 in a humid atmosphere.
At the end of the contact period, the cell viability is determined by means of a Neutral Red (POS 55/006) incorporation test, with spectrophotometric reading at 500 nm. […]

For the compound `[Cl][Cd][Cl]` [cadmium chloride], the IC50 was determined as 37.7 µM.
